Assay results taken from patent US8551978B2 (Theravance, Inc., priority 2009, dated 2013).
pEC50, pKi: −log10 of the molar value. Structures can show the parent of a compound that is named as a salt. Where two headings read alike, the source gives them in different places.

Tests used:
[1] = target: hM3 muscarinic receptor (Homo sapiens (Human), UniProt P20309); assay: Radioligand binding assay for muscarinic receptors ([3H]-NMS displacement, CHO cell membranes)
Description: The cells were grown in a 5% CO2, 37° C. incubator and lifted with 2 mM EDTA in dPBS. Cells were collected by 5 minute centrifugation at 650×g, and cell pellets were either stored frozen at −80° C. or membranes were prepared immediately for use. For membrane preparation, cell pellets were resuspended in lysis buffer and homogenized with a Polytron PT-2100 tissue disrupter (Kinematica AG; 20 seconds×2 bursts). Crude membranes were centrifuged at 40,000×g for 15 minutes at 4° C. The membrane pellet was then resuspended with re-suspension buffer and homogenized again with the Polytron tissue disrupter. The protein concentration of the membrane suspension was determined by the method described in Lowry et al., 1951, […], 193, 265. All membranes were stored frozen in aliquots at −80° C. or used immediately. […] The membranes were briefly homogenized using a Polytron tissue disruptor (10 seconds) prior to assay plate addition. […] The test compounds were initially dissolved to a concentration of 400 μM in dilution buffer and then serially diluted 5× with dilution buffer to final concentrations ranging from 10 μM to […]. The order of addition and volumes added to the assay plates were as follows: 25 μL radioligand, 25 μL diluted test compound, and 50 μL membranes. Assay plates were incubated for 6 hours at 37° C. […] Filter plates were rinsed three times with wash buffer (10 mM HEPES) to remove unbound radioactivity. The plates were then air-dried and 50 μL Microscint-20 liquid scintillation fluid (PerkinElmer, Inc.) were added to each well. The plates were then counted in a PerkinElmer Topcount liquid scintillation counter (PerkinElmer, Inc.). Binding data were analyzed by nonlinear regression analysis with the GraphPad Prism Software package (GraphPad Software, Inc., San Diego, Calif.) using the one-site competition model. […] These summary statistics were then converted back to K; values for data reporting.

[2] = target: hβ2 adrenergic receptor (Homo sapiens (Human), UniProt P07550); assay: Assay for determining adrenergic receptor agonist potency (cAMP Flashplate, HEK-293 cells); assay type: cell-based; details: data rounded to nearest 1 nM
Sequence of hβ2 adrenergic receptor (P07550 whole entry): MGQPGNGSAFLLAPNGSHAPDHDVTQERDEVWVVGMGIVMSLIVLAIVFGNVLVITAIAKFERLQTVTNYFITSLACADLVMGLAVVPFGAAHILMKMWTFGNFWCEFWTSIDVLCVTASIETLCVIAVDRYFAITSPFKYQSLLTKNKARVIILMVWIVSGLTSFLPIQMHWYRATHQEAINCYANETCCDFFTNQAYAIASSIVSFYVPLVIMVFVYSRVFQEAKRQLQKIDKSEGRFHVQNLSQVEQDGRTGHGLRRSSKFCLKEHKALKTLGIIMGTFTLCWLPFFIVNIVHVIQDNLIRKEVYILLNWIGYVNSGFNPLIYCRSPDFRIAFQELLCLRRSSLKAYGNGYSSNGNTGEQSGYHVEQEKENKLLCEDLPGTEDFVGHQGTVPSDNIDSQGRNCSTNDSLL
Description: The cell monolayer was lifted with 2 mM EDTA in PBS. Cells were pelleted by centrifugation at 1,000 rpm, and cell pellets were either stored frozen at −80° C. or membranes were prepared immediately for use. cAMP assays were performed in a radioimmunoassay format using the Flashplate Adenylyl Cyclase Activation Assay System with [^125I]-cAMP (NEN SMP004, PerkinElmer Life Sciences Inc., Boston, Mass.), according to the manufacturers instructions. […] Cells were rinsed with PBS and detached in dPBS (Dulbecco's Phosphate Buffered Saline, without CaCl2 and MgCl2) containing 2 mM EDTA or Trypsin-EDTA solution (0.05% trypsin/0.53 mM EDTA). After counting cells in Coulter cell counter, cells were pelleted by centrifugation at 1,000 rpm and re-suspended in stimulation buffer containing TBMX (PerkinElmer Kit) pre-warmed to room temperature to a concentration of 1.6×10^6 to 2.8×10^6 cells/mL. About 40,000 to 80,000 cells per well were used in this assay. […] Reactions were incubated for 10 min at 37° C. and stopped by adding 100 μL of cold detection buffer containing [^125I]-cAMP (NEN SMP004, PerkinElmer Life Sciences, Boston, Mass.). […] Data were analyzed by nonlinear regression analysis with the GraphPad Prism Software package (GraphPad Software, Inc., San Diego, Calif.) with the sigmoidal equation. The Cheng-Prusoff equation (Cheng Y, and Prusoff W H., Biochemical Pharmacology, 1973, 22, 23, 3099-108) was used to calculate the EC50 values.

[3] = test system: MCh-induced bronchoconstriction; assay: Einthoven assay: bronchoprotection against methacholine (MCh)-induced bronchoconstriction; assay type: in vivo, rat; details: for inhibition in vivo at 0.1 mg: inhaled or nasal, read-out: Broncho. at 24 h
Description: This assay measures the ability of a test compound to provide bronchoprotection against methacholine (MCh)-induced bronchoconstriction in a rat. Male Sprague-Dawley rats (Harlan, Indianapolis, Ind.), weighing between 200 g and 350 g, were used for all studies. Test compound or vehicle (sterile deionized water) were dosed by inhalation (1H) over a 10 min period in a pie shaped inhalation chamber (R+S Molds, San Carlos, Calif.) using 5 mL of dosing solution. […] Rats were dosed with 100 μg of test compound unless otherwise indicated. At predetermined time points, rats were anesthetized with an intraperitoneal (IP) injection of 120 mg/kg inactin (thiobutabarbital). A supplemental dose (40 mg/kg, IP) was administered if the animal responded to physical stimuli (e.g. toe pinch). The surgical site was shaved and a 1-2 cm midline incision of the ventral aspect of the neck was made. The jugular vein was isolated and cannulated with a saline-filled polyethylene catheter (PE-50) to allow IV infusion of MCh. Trachea was dissected free and cannulated with a 14G needle (#NE-014, Small Parts, Miami Lakes, Fla.). After placement of the tracheal cannula, each rat was ventilated using a respirator (Model 683, Harvard Apparatus, Inc., MA) set at a stroke volume of 1 mL/100 g body weight (but not exceeding 2.5 mL volume) and a rate of 90 strokes per minute. A T-connector was placed along the respirator expiratory tubing to allow for measurement of changes in ventilation pressure (VP) using a Biopac transducer that was connected to a Biopac […]) pre-amplifier. Body temperature was maintained at 37° C. using a heating pad. Changes in VP were recorded using the Acknowledge Data Collection Software (Santa Barbara, Calif.). Baseline values were collected for at least 2.5 min. Rats were then challenged with non-cumulative intravenous (IV) infusions of 40 and 80 μg/kg MCh. MCh was infused intravenously for 2.5 minutes from a syringe pump (sp210iw, World Precision Instruments, Inc., Sarasota, Fla.) at a rate of 2 mL/kg/min, with a 2 minute interval between the two doses of MCh. Changes in ventilation pressure (cm H2O) in treated animals are expressed as % inhibition of MCh response relative to control animals. Other bronchoconstrictors, such as histamine and acetylcholine, can be used in place of MCh in this assay. Additionally, guinea pigs can be used instead of rats. […] Inhibition greater than or equal to 30 percent at 24 h is indicative of a long duration of action.

[4] = rat, 100 μg by inhalation, 24 h after administration
[5] = hM3 Muscarinic Receptor Binding, data rounded to nearest 0.1 nM

Sequence of hM3 muscarinic receptor (P20309 whole entry): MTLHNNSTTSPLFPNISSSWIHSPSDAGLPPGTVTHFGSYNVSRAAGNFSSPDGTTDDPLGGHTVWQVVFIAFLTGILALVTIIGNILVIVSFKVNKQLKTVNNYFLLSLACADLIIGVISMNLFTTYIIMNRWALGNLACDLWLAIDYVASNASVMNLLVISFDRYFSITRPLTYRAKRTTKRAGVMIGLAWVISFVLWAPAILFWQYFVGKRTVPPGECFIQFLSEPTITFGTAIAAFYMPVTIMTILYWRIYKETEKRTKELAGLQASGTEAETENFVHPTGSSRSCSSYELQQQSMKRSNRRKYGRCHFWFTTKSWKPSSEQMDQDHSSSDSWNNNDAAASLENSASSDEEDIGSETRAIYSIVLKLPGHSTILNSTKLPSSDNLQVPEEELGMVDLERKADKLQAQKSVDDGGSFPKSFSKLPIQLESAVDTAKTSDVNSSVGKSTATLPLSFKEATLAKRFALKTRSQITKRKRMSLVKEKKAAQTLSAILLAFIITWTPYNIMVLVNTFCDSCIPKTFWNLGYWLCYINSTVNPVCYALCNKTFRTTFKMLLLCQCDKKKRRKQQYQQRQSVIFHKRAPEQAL

| Compound | pKi [1] | pEC50 [2] | Broncho. at 24 h [3, 4] | pKi [1, 5] | inhibition in vivo at 0.1 mg [3, 4] | inhibition in vivo at 0.1 mg ([3]; Rattus norvegicus, 24 h) |
| --- | --- | --- | --- | --- | --- | --- |
| Cc1cc(CNC[C@H](O)c2ccc(O)c3[nH]c(=O)ccc23)ccc1NC(=O)CCCN(C)C(=O)CCN1CCC(OC(=O)Nc2ccccc2-c2ccccc2)CC1 [Compound I-2] | 10.00 | 9.00 | No |  |  |  |
| COc1cc(CNC[C@H](O)c2ccc(O)c3[nH]c(=O)ccc23)ccc1NC(=O)CCCN(C)C(=O)CCN1CCC(OC(=O)Nc2ccccc2-c2ccccc2)CC1 [Compound I-3] |  | 9.00 |  | 10.00 | > 30% |  |
| COc1cc(NC(=O)CCCN(C)C(=O)CCN2CCC(OC(=O)Nc3ccccc3-c3ccccc3)CC2)ccc1CNC[C@H](O)c1ccc(O)c2[nH]c(=O)ccc12 [Compound I-4] |  | 8.70 |  | 10.00 | > 30% |  |
| Cc1cc(NC(=O)CCCN(C)C(=O)CCN2CCC(OC(=O)Nc3ccccc3-c3ccccc3)CC2)c(C)cc1CNC[C@H](O)c1ccc(O)c2[nH]c(=O)ccc12 [Compound I-5] | 10.00 | 9.00 |  |  | > 30% |  |
| COc1cc(NC(=O)CCCN(C)C(=O)CCN2CCC(OC(=O)Nc3ccccc3-c3ccccc3)CC2)c(Cl)cc1CNC[C@H](O)c1ccc(O)c2[nH]c(=O)ccc12 [Compound I-6] |  | 9.00 |  | 10.00 | > 30% |  |
| CN(CCCC(=O)Nc1cccc(CCNC[C@H](O)c2ccc(O)c3[nH]c(=O)ccc23)c1)C(=O)CCN1CCC(OC(=O)Nc2ccccc2-c2ccccc2)CC1 [Compound I-7, Biphenyl-2-ylcarbamic Acid 1-(2-{[3-(3-{2-[(R)-2-Hydroxy-2-(8-hydroxy-2-oxo-1,2-dihydroquinolin-5-yl)ethylamino]ethyl}phenylcarbamoyl)-propyl]methylcarbamoyl}ethyl)piperidin-4-yl Ester Ditrifluoroacetic Acid Salt] | 10.00 | 9.00 |  |  |  | > 30% |
| CN(CCCC(=O)Nc1ccc(CCNC[C@H](O)c2ccc(O)c3[nH]c(=O)ccc23)cc1)C(=O)CCN1CCC(OC(=O)Nc2ccccc2-c2ccccc2)CC1 [Compound I-8] | 10.00 | 9.00 |  |  | > 30% |  |
| CC(Cc1cccc(NC(=O)CCCN(C)C(=O)CCN2CCC(OC(=O)Nc3ccccc3-c3ccccc3)CC2)c1)NC[C@H](O)c1ccc(O)c2[nH]c(=O)ccc12 (stereo partly shown) [Compound I-10] | 10.00 | 9.00 |  |  | > 30% |  |
| CC(Cc1cccc(CC(=O)NCCCN(C)C(=O)CCN2CCC(OC(=O)Nc3ccccc3-c3ccccc3)CC2)c1)NC[C@H](O)c1ccc(O)c2[nH]c(=O)ccc12 (stereo partly shown) [Compound I-11] | 10.00 | 9.00 |  |  | > 30% |  |
| C[C@H](Cc1cccc(CC(=O)NCCCN(C)C(=O)CCN2CCC(OC(=O)Nc3ccccc3-c3ccccc3)CC2)c1)NC[C@H](O)c1ccc(O)c2[nH]c(=O)ccc12 [Compound I-12] | 10.00 | 9.00 | No |  |  |  |
| C[C@@H](Cc1cccc(CC(=O)NCCCN(C)C(=O)CCN2CCC(OC(=O)Nc3ccccc3-c3ccccc3)CC2)c1)NC[C@H](O)c1ccc(O)c2[nH]c(=O)ccc12 [Compound I-13, Biphenyl-2-ylcarbamic Acid 1-[2-({3-[2-(3-{(S)-2-[(R)-2-Hydroxy-2-(8-hydroxy-2-oxo-1,2-dihydroquinolin-5-yl)ethylamino]propyl}phenyl)acetylamino]-propyl}methylcarbamoyl)ethyl]piperidin-4-yl Ester Ditrifluoroacetic Acid Salt] | 10.00 | 9.00 |  |  |  | > 30% |
| CN(CCCCC(=O)Nc1ccc(CNC[C@H](O)c2ccc(O)c3[nH]c(=O)ccc23)cc1)C(=O)CCN1CCC(OC(=O)Nc2ccccc2-c2ccccc2)CC1 [Compound I-14, Biphenyl-2-ylcarbamic Acid 1-(2-{[4-(4-{[(R)-2-hydroxy-2-(8-hydroxy-2-oxo-1,2-dihydroquinolin-5-yl)ethylamino]methyl}phenylcarbamoyl)-butyl]methylcarbamoyl}ethyl)piperidin-4-yl Ester Ditrifluoroacetic Acid Salt] | 10.00 | 9.00 |  |  |  | > 30% |
| Cc1cc(CNC[C@H](O)c2ccc(O)c3[nH]c(=O)ccc23)ccc1NC(=O)CCCCN(C)C(=O)CCN1CCC(OC(=O)Nc2ccccc2-c2ccccc2)CC1 [Compound I-15] | 10.00 | 9.00 |  |  | > 30% |  |
| COc1cc(CNC[C@H](O)c2ccc(O)c3[nH]c(=O)ccc23)ccc1NC(=O)CCCCN(C)C(=O)CCN1CCC(OC(=O)Nc2ccccc2-c2ccccc2)CC1 [Compound I-16] | 10.00 | 9.00 |  |  | > 30% |  |
| COc1cc(NC(=O)CCCCN(C)C(=O)CCN2CCC(OC(=O)Nc3ccccc3-c3ccccc3)CC2)ccc1CNC[C@H](O)c1ccc(O)c2[nH]c(=O)ccc12 [Compound I-17] | 10.00 | 9.00 |  |  | > 30% |  |
| C[C@@H](Cc1ccc(NC(=O)c2cccc(N(C)C(=O)CCN3CCC(OC(=O)Nc4ccccc4-c4ccccc4)CC3)c2)cc1)NC[C@H](O)c1ccc(O)c2[nH]c(=O)ccc12 [Compound I-43] |  |  |  |  | > 30% |  |
| CN(C(=O)CCN1CCC(OC(=O)Nc2ccccc2-c2ccccc2)CC1)c1cccc(CC(=O)Nc2cccc(CCNC[C@H](O)c3ccc(O)c4[nH]c(=O)ccc34)c2)c1 [Compound I-62] |  |  |  |  | > 30% |  |
| CC(Cc1cccc(CCNC(=O)Cc2ccc(N(C)C(=O)CCN3CCC(OC(=O)Nc4ccccc4-c4ccccc4)CC3)cc2)c1)NC[C@H](O)c1ccc(O)c2[nH]c(=O)ccc12 (stereo partly shown) [Compound I-85] |  |  |  |  | > 30% |  |
| C[C@@H](Cc1cccc(CCNC(=O)Cc2ccc(N(C)C(=O)CCN3CCC(OC(=O)Nc4ccccc4-c4ccccc4)CC3)cc2)c1)NC[C@H](O)c1ccc(O)c2[nH]c(=O)ccc12 [Compound I-87] |  |  | Yes (Bronchoprotective effect present at 24 h, e.g., ≧30% inhibition of the MCh response at 24 h in the rat Einthoven assay (100 μg)) |  |  |  |
